“Also recorded” adds a separate entry of the source.
Columns and labels:
[1] = test system: human HSC long term repopulating potential; assay: secondary transplant (2T) in NSG mice, long term repopulating potential (LTRP); assay type: in vivo; settings: for secondary engraftment potential / long term repopulating potential (LTRP): 2T NSG mice, 6 weeks, inhibitor present during ex vivo culture, all time points; for number of 2T mice with human cell engraftment (>0.01% hCD45+ cells in BM): 6 weeks post-secondary transplant
Procedure: (§1) FIG. 2. A preclinical model for studying adult human HSC ex vivo manipulation and gene transfer and its effect on LTRP. (Panel A) Freshly isolated or thawed mobilized peripheral blood (MPB) derived CD34+ cells were utilized for the study. Two different protocols were utilized for the study where lentivirus (LV) or γ-Retrovirus (RV) mediated gene transfer was performed at indicated time points. 0 h, 18-24 h, 36-42 h, and 72-96 h indicates the total amount of time where cells were exposed in the ex vivo culture after CD34 isolation before injection into NSG mice. (Panel B) After indicated time in culture and transduction, 1 million CD34+ starting equivalent cells were transplanted per NSG mouse after TBI intravenously (primary transplant=1T). Primary human engraftment and multi-lineage reconstitution was analyzed in mice at indicated time periods after bone marrow harvest at 6 and 12 weeks (wks) from left and right femurs, and after sacrifice at 24 wks, from all bones. A portion of cells were analyzed for FACS and the rest were depleted of mouse CD45+ cells and transplanted one to one, into secondary mice (secondary transplant=2T).
Panel B: Number of 2T mice engrafted (>0.01% hCD45^+ cells in BM) are shown above the middle bar and those non-engrafted below.
Human MPB derived CD34^+ cells either fresh or thawed were cultured and transduced with lentivirus (LV) or retrovirus (RV) expressing GFP for the indicated time points. Cells were harvested and phospho-p38MAPK was detected by flow cytometry. Panel A: Representative histogram plot of p-p38 (number represents mean fluorescence intensity (MFI). Panel B: Fold change of p-p38 MAPK MFI (±SEM) in human CD34^+ 38^− 90^+ 45RA^− 49f^+ cells with or without p38 inhibitor (p38i). Panel C: Human CD45^+ engraftment in NSG mice with (striped bars) or without p38 inhibitor (solid bars) after 24 weeks of primary transplant. Panel D: Human engraftment in NSG mice with or without p38i after 6 weeks of secondary transplant. Engrafted mice (>0.01% CD45^+ cells in the whole bone marrow) over total mice transplanted is shown as percentage. Human CD33^+ myeloid (Panels E and F), CD19^+ B-Lymphoid (Panels G and H) and CD34^+ hematopoietic stem/progenitor cells (HSPCs) (Panels I and J) re-constitution with or without p38i (Panels E, G, and I): GFP^− untransduced; (Panels F, H & J): GFP^+ transduced in primary transplanted mice 24 weeks post transplantation are shown. Data expressed as mean±SEM from 5 independent experiments (n=12-21 mice per group). Statistics: Student's t test, *p<0.05, **p<0.01, ***p<0.001.
Engrafted mice (>0.01% CD45^+ cells in the whole bone marrow) are shown above the middle bar, engrafted/Total mice number is shown on the side. […] Data expressed as mean±SEM from 5 independent experiments (n=7-29 mice per group). […]

[2] = test system: human CD33+ myeloid, CD19+ B-lymphoid and CD34+ HSPC progeny; assay: multi-lineage reconstitution (myeloid skewing) in 1T NSG mice 24 weeks post transplantation; assay type: in vivo
Procedure: as §1
Human MPB derived CD34^+ cells either fresh or thawed were cultured and transduced with lentivirus (LV) or retrovirus (RV) expressing GFP for the indicated time points. Cells were harvested and phospho-p38MAPK was detected by flow cytometry. […] Data expressed as mean±SEM from 5 independent experiments (n=12-21 mice per group). […]
Next, the multi-lineage reconstitution was analyzed at 6, 12 and 24 weeks in BM of 1T animals, both of the untransduced (GFP^−) versus transduced (GFP^+) progeny. […]

Cc1ccc(-n2nc(C(C)(C)C)cc2NC(=O)Nc2ccc(OCCN3CCOCC3)c3ccccc23)cc1 [BIRB-796, 1-[5-tert-butyl-2-(4-methylphenyl)pyrazol-3-yl]-3-[4-(2-morpholin-4-ylethoxy)naphthalen-1-yl]urea]
secondary engraftment potential / long term repopulating potential (LTRP) [1]: retains
secondary engraftment potential / long term repopulating potential (LTRP) ([1]; listed as p38i): retain; also recorded: restores; also recorded: rescues
number of 2T mice with human cell engraftment (>0.01% hCD45+ cells in BM) [1]: significantly increase
number of 2T mice with human cell engraftment (>0.01% hCD45+ cells in BM) ([1]; listed as Birb796): increases
myeloid skewing phenotype (overall) ([2]; 1T mice 24 weeks post transplantation, listed as p38i): significantly revert this phenotype but only partially; also recorded: partially reverts
myeloid lineage skewing ([2]; 72-96 h RV group): some improvement
myeloid lineage skewing ([2]; HSPC transduced within the first 24 h with LV, cultures up to 72-96 h): restored to levels similar to untransduced cells or 0 h controls

Reference: patent US20180325947A1, “USE OF MAPK INHIBITORS TO REDUCE LOSS OF HEMATOPOIETIC STEM CELLS DURING EX VIVO CULTURE AND/OR GENETIC MANIPULATION” (Children's Hospital Medical Center, priority 2015, published 2018)
